{"source": "paper PMC12123601", "about": "“Light-Induced, Lysine-Targeting Irreversible Covalent Inhibition of the Human Oxygen Sensing Hydroxylase Factor Inhibiting HIF (FIH)” (Journal of the American Chemical Society, 2025)", "test_system": "EGLN3 mRNA level in Hep3B cells", "assay": "qRT-PCR of FIH-dependent HIF target gene EGLN3 in Hep3B cells", "format": "cell-based", "conditions": "for Upregulation of EGLN3 expression: absence of irradiation", "procedure": "5 […] sustainably engages with FIH and regulates the expression of FIH-dependent HIF target gene EGLN3 in Hep3B cells. (A) The CETSA assay was carried out with Hep3B cells grown in the presence of NBA-ZG-2291 (50 μM) for 12–48 h after 30 min of light activation (365 nm, 16 W). The intensity of the bands for grayscale analysis was referenced to the starting temperature (37 °C). α-Actinin was the sample loading control. n = 2; mean ± SD. […] (E) Correlation heatmap of the NBA-ZG-2291-treated group and the siFIH group by RNA-sequencing analysis. […] The relative fold change with respect to DMSO treated sample is shown (with normalization to HPRT gene levels). Mean ± SEM; n = 3. (G) TG level of NBA-ZG-2291-treated 3T3-L1-derived adipocytes. Mean ± SEM; n = 3. (H) Representative Oil Red O-stained images of the control, ZG-2291-treated, and NBA-ZG-2291-treated 3T3-L1-derived adipocytes. Scale Bar, 30 μm. P values were analyzed by two-way ANOVA comparing with the vehicle/control group (*, P < 0.05; **, P < 0.01; ***, P < 0.001, ****, P < 0.0001). See Methods (Quantitative PCR Analysis of Gene Expression) for assay details. TEXT PRINTED IN THE PICTURE: (A) no label printed: FIH: ΔTm (°C): 8.87 (Incubation time: 12 h); FIH: ΔTm (°C): 9.28 (Incubation time: 24 h); FIH: ΔTm (°C): 8.86 (Incubation time: 48 h); α-actinin: ΔTm (°C): 0.30 (Incubation time: 12 h); α-actinin: ΔTm (°C): -0.03 (Incubation time: 24 h); α-actinin: ΔTm (°C): -0.45 (Incubation time: 48 h) DOUBTS OF THE COPYIST ABOUT THIS PICTURE: Panel A: the picture prints no substance label with the ΔTm tables, so the label is left empty\nThe Egl-9 family hypoxia-inducible factor 3 gene (EGLN3, PHD3) is a HIF target gene, expression of which is negatively regulated by FIH catalysis, , potentially in a context-dependent manner. We therefore investigated the effect of the light-induced covalent inhibitor NBA-ZG-2291 on EGLN3 expression levels in Hep3B cells using ZG-2291 as a positive inhibition control. […] At a concentration of 10 μM, NBA-ZG-2291 increased EGLN3 expression by ∼2.5-fold with irradiation.\nWe also compared the time-dependent regulation of NBA-ZG-2291 on the HIF pathway with that of ZG-2291. […] This may result from the limited action time of the reversible inhibitor, perhaps due to its metabolism. The overall results provide strong evidence that the light-induced, lysine-targeting irreversible covalent inhibitor NBA-ZG-2291 can effectively and sustainably engage FIH, leading to the upregulation of FIH-dependent HIF target gene expression."}
{"smiles": "O=C(O)CNC(=O)c1ncc(-c2cc(-c3ccc(CO)c([N+](=O)[O-])c3)no2)cc1O", "note": "[NBA-ZG-2291]", "values": [{"measurement": "Upregulation of EGLN3", "setting": "0.3 μM, after 30 min light activation (365 nm, 16 W)", "result": 1.35, "unit": "fold"}, {"measurement": "Upregulation of EGLN3 expression", "setting": "10 μM", "result": "did not result in significant upregulation"}, {"measurement": "Increase of EGLN3 expression", "setting": "10 μM, with irradiation", "result": "~2.5", "unit": "fold"}, {"measurement": "Upregulation of EGLN3 expression", "setting": "20 μM", "result": "very weak upregulation"}, {"measurement": "Increase of EGLN3 expression, time course", "setting": "maintained from 6 to 48 h, after 30 min irradiation", "result": 2.5, "unit": "fold"}]}
